Results on 26 molecules are retold here after patent publication US8722704B2, “Modulators of ATP-binding cassette-transporters” (Vertex Pharmaceuticals Incorporated, priority 2007, dated 2014).

As a reminder, the EC50 is the concentration at which the effect is half-maximal.

Some results are limits rather than exact numbers.

For this test, the target named is T1, ΔF508-CFTR (Homo sapiens, UniProt P13569, DEL508-508).
T1 construct: expressed in transfected cells
T1 sequence (P13569 with tags, fused parts or gaps DEL508-508): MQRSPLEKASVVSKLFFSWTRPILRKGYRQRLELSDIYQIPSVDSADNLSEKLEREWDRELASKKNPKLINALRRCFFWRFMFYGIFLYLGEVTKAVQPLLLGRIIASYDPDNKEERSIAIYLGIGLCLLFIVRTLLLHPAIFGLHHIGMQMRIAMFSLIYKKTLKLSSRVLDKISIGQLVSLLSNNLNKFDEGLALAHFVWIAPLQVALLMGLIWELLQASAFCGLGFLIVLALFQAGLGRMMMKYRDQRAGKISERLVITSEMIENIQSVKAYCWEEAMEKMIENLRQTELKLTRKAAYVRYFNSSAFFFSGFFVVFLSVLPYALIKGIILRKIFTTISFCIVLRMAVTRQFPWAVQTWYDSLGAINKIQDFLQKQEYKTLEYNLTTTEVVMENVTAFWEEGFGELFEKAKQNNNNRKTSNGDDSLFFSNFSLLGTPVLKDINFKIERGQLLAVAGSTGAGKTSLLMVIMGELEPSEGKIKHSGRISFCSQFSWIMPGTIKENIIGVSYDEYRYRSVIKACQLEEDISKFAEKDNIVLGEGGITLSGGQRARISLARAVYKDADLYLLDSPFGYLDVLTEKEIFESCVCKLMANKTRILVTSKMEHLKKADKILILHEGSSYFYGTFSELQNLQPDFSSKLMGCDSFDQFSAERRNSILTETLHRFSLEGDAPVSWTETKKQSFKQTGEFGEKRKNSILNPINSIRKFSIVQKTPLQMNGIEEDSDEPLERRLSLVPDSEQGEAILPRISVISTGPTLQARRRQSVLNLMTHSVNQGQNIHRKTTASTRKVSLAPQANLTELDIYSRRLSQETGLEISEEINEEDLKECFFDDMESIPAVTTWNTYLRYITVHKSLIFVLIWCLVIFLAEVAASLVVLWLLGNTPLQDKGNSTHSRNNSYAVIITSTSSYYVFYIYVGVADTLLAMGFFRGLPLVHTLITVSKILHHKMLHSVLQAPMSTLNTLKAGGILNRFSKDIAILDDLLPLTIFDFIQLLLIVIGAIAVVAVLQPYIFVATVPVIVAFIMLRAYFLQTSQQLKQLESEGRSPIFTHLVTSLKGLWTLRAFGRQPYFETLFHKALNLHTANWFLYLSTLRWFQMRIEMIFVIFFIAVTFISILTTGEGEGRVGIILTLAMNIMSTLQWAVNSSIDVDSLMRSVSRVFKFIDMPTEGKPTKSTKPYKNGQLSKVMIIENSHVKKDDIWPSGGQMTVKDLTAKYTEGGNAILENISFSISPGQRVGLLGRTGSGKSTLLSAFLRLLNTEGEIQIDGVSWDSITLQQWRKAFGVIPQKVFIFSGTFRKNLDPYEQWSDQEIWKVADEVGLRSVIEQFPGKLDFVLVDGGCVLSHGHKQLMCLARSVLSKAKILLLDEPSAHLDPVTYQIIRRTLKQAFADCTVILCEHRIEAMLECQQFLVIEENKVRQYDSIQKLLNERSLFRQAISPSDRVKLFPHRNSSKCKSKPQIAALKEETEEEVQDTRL
The test is described as follows: Assays for detecting and measuring ΔF508-CFTR correction properties (membrane potential optical assay; Table 3 does not say which assay). It counts as cell-based. The following applies: IC50/EC50 bins; NIH3T3 mouse fibroblasts stably expressing ΔF508-CFTR; read-out: Binned EC50. From the text:
The optical membrane potential assay utilized voltage-sensitive FRET sensors described by Gonzalez and Tsien (See Gonzalez, J. E. and R. Y. Tsien (1995) “Voltage sensing by fluorescence resonance energy transfer in single cells” Biophys J 69(4): 1272-80, and Gonzalez, J. E. and R. Y. Tsien (1997) “Improved indicators of cell membrane potential that use fluorescence resonance energy transfer” Chem Biol 4(4): 269-77) in combination with instrumentation for measuring fluorescence changes such as the Voltage/Ion Probe Reader (VIPR) (See Gonzalez, J. E., K. Oades, et al. (1999) “Cell-based assays and instrumentation for screening ion-channel targets” Drug Discov Today 4(9): 431-439).
These voltage sensitive assays are based on the change in fluorescence resonant energy transfer (FRET) between the membrane-soluble, voltage-sensitive dye, DiSBAC2(3), and a fluorescent phospholipid, CC2-DMPE, which is attached to the outer leaflet of the plasma membrane and acts as a FRET donor. Changes in membrane potential (Vm) cause the negatively charged DiSBAC2(3) to redistribute across the plasma membrane and the amount of energy transfer from CC2-DMPE changes accordingly. The changes in fluorescence emission were monitored using VIPR™ II, which is an integrated liquid handler and fluorescent detector designed to conduct cell-based screens in 96- or 384-well microtiter plates.
To identify small molecules that correct the trafficking defect associated with ΔF508-CFTR; a single-addition HTS assay format was developed. The cells were incubated in serum-free medium for 16 hrs at 37° C. in the presence or absence (negative control) of test compound. As a positive control, cells plated in 384-well plates were incubated for 16 hrs at 27° C. to “temperature-correct” ΔF508-CFTR. The cells were subsequently rinsed 3× with Krebs Ringers solution and loaded with the voltage-sensitive dyes. To activate ΔF508-CFTR, 10 μM forskolin and the CFTR potentiator, genistein (20 μM), were added along with Cl^−-free medium to each well. The addition of Cl^−-free medium promoted Cl^− efflux in response to ΔF508-CFTR activation and the resulting membrane depolarization was optically monitored using the FRET-based voltage-sensor dyes. […]
3. Solutions • Bath Solution #1: (in mM) NaCl 160, KCl 4.5, CaCl2 2, MgCl2 1, HEPES 10, pH 7.4 with NaOH. • Chloride-free bath solution: Chloride salts in Bath Solution #1 are substituted with gluconate salts. • CC2-DMPE: Prepared as a 10 mM stock solution in DMSO and stored at −20° C. • DiSBAC2(3): Prepared as a 10 mM stock in DMSO and stored at −20° C.
NIH3T3 mouse fibroblasts stably expressing ΔF508-CFTR are used for optical measurements of membrane potential. The cells are maintained at 37° C. in 5% CO2 and 90% humidity in Dulbecco's modified Eagle's medium supplemented with 2 mM glutamine, 10% fetal bovine serum, 1×NEAA, β-ME, 1×pen/strep, and 25 mM HEPES in 175 cm^2 culture flasks. For all optical assays, the cells were seeded at 30,000/well in 384-well matrigel-coated plates and cultured for 2 hrs at 37° C. before culturing at 27° C. for 24 hrs for the potentiator assay. For the correction assays, the cells are cultured at 27° C. or 37° C. with and without compounds for 16-24 hours.
In the case of `Cc1cc2cc(-c3nc(NC(=O)C4(c5ccc6c(c5)OC(F)(F)O6)CC4)cc4ccccc34)ccc2[nH]1` [Compound 7, 1-(2,2-difluorobenzo[d][1,3]dioxol-5-yl)-N-(1-(2-methyl-1H-indol-5-yl)isoquinolin-3-yl)cyclopropanecarboxamide], the 50% effective concentration (EC50) was at most 2000 nM.
For the molecule `CN1CCN(C(=O)c2ccc(-c3nc(NC(=O)C4(c5ccc6c(c5)OC(F)(F)O6)CC4)cc4ccccc34)cc2)CC1` [Compound 24, 1-(2,2-difluorobenzo[d][1,3]dioxol-5-yl)-N-(1-(4-(4-methylpiperazine-1-carbonyl)phenyl)isoquinolin-3-yl)cyclopropanecarboxamide], the EC50 is at most 2000 nM.
To `O=C(Nc1cc2ccccc2c(-c2ccc3[nH]ccc3c2)n1)C1(c2ccc3c(c2)OC(F)(F)O3)CC1` [Compound 16, N-(1-(1H-Indol-5-yl)isoquinolin-3-yl)-1-(2,2-difluorobenzo[d][1,3]dioxol-5-yl)cyclopropanecarboxamide] belongs at most 2000 nM; to `CS(=O)(=O)NCc1cccc(-c2nc(NC(=O)C3(c4ccc5c(c4)OC(F)(F)O5)CC3)cc3ccccc23)c1` [Compound 9, 1-(2,2-Difluorobenzo[d][1,3]dioxol-5-yl)-N-(1-(3-(methylsulfonamidomethyl)phenyl)isoquinolin-3-yl)cyclopropanecarboxamide], at most 2000 nM.
For the molecule `COc1ccc(C2(C(=O)Nc3cc4ccccc4c(N4CCCCC4)n3)CC2)cc1` [Compound 23, 1-(4-methoxyphenyl)-N-(1-(piperidin-1-yl)isoquinolin-3-yl)cyclopropanecarboxamide], the EC50 was at most 2000 nM.
Turning to `CC(=O)NCc1cccc(-c2nc(NC(=O)C3(c4ccc5c(c4)OC(F)(F)O5)CC3)cc3ccccc23)c1` [Compound 10, N-(1-(3-(Acetamidomethyl)phenyl)isoquinolin-3-yl)-1-(2,2-difluorobenzo[d][1,3]dioxol-5-yl)cyclopropanecarboxamide], the EC50 was at most 2000 nM.
To `C[N+](C)(C)CCOC(=O)c1cccc(-c2nc(NC(=O)C3(c4ccc5c(c4)OC(F)(F)O5)CC3)cc3ccccc23)c1` [Compound 28, 2-(3-(3-(1-(2,2-Difluorobenzo[d][1,3]dioxol-5-yl)cyclopropanecarboxamido)isoquinolin-1-yl)benzoyloxy)-N,N,N-trimethylethanaminium chloride] belongs at most 2000 nM.
To `O=C(Nc1cc2ccccc2c(-c2ccc(=O)[nH]c2)n1)C1(c2ccc3c(c2)OC(F)(F)O3)CC1` [Compound 17, 1-(2,2-Difluorobenzo[d][1,3]dioxol-5-yl)-N-(1-(6-oxo-1,6-dihydropyridin-3-yl)isoquinolin-3-yl)cyclopropanecarboxamide] belongs at most 2000 nM; to `COc1ccc(C2(C(=O)Nc3cc4ccccc4c(N4CCC(c5ccccc5)CC4)n3)CC2)cc1` [Compound 20, 1-(4-methoxyphenyl)-N-(1-(4-phenylpiperidin-1-yl)isoquinolin-3-yl)cyclopropanecarboxamide], at most 2000 nM.
Turning to `CS(=O)(=O)NCc1ccc(-c2nc(NC(=O)C3(c4ccc5c(c4)OC(F)(F)O5)CC3)cc3ccccc23)cc1` [Compound 1, 1-(2,2-Difluorobenzo[d][1,3]dioxol-5-yl)-N-(1-(4-(methylsulfonamidomethyl)phenyl)isoquinolin-3-yl)cyclopropanecarboxamide], the concentration for a half-maximal effect (EC50) was over 5000 nM.
To `O=C(O)c1ccc(-c2nc(NC(=O)C3(c4ccc5c(c4)OC(F)(F)O5)CC3)cc3ccccc23)cc1` [Compound 5] belongs at most 2000 nM; to `COc1ccc(-c2nc(NC(=O)C3(c4ccc5c(c4)OC(F)(F)O5)CC3)cc3ccccc23)cn1` [Compound 25, 1-(2,2-Difluorobenzo[d][1,3]dioxol-5-yl)-N-(1-(6-methoxypyridin-3-yl)isoquinolin-3-yl)cyclopropanecarboxamide], at most 2000 nM; to `COc1ccc(C2(C(=O)Nc3cc4ccccc4c(N4CCN(C)CC4)n3)CC2)cc1` [Compound 12], at most 2000 nM.
With `O=C1NCc2ccc(-c3nc(NC(=O)C4(c5ccc6c(c5)OC(F)(F)O6)CC4)cc4ccccc34)cc21` [Compound 15, 1-(2,2-Difluorobenzo[d][1,3]dioxol-5-yl)-N-(1-(3-oxoisoindolin-5-yl)isoquinolin-3-yl)cyclopropanecarboxamide], the EC50 is at most 2000 nM.
To `O=C(Nc1cc2ccccc2c(-c2ccc(CO)cc2)n1)C1(c2ccc3c(c2)OC(F)(F)O3)CC1` [Compound 27, 1-(2,2-Difluorobenzo[d][1,3]dioxol-5-yl)-N-(1-(4-(hydroxymethyl)phenyl)isoquinolin-3-yl)cyclopropanecarboxamide] belongs at most 2000 nM; to `NS(=O)(=O)c1ccc(-c2nc(NC(=O)C3(c4ccc5c(c4)OC(F)(F)O5)CC3)cc3ccccc23)cc1` [Compound 11, 1-(2,2-Difluorobenzo[d][1,3]dioxol-5-yl)-N-(1-(4-sulfamoylphenyl)isoquinolin-3-yl)cyclopropanecarboxamide], at most 2000 nM; to `NC(=O)c1cccc(-c2nc(NC(=O)C3(c4ccc5c(c4)OC(F)(F)O5)CC3)cc3ccccc23)c1` [Compound 22, 3-(3-(1-(2,2-Difluorobenzo[d][1,3]dioxol-5-yl)cyclopropanecarboxamido)isoquinolin-1-yl)benzamide], at most 2000 nM.
To `COc1ccc(C2(C(=O)Nc3cc4ccccc4c(N4CCNC(=O)C4)n3)CC2)cc1` [Compound 21] belongs at most 2000 nM.
With `COc1ccc(C2(C(=O)Nc3cc4ccccc4c(N4CCN(c5ccccc5)C(=O)C4)n3)CC2)cc1` [Compound 14, 1-(4-methoxyphenyl)-N-(1-(3-oxo-4-phenylpiperazin-1-yl)isoquinolin-3-yl)cyclopropanecarboxamide], the half-maximal effective concentration (EC50) was at most 2000 nM.
To `NC(=O)c1ccc(-c2nc(NC(=O)C3(c4ccc5c(c4)OC(F)(F)O5)CC3)cc3ccccc23)cc1` [Compound 6, 4-(3-(1-(2,2-Difluorobenzo[d][1,3]dioxol-5-yl)cyclopropanecarboxamido)isoquinolin-1-yl)benzamide] belongs at most 2000 nM; to `COc1ccc(C2(C(=O)Nc3cc4ccccc4c(N4CCOCC4)n3)CC2)cc1` [Compound 18, 1-(4-methoxyphenyl)-N-(1-morpholinoisoquinolin-3-yl)cyclopropanecarboxamide], at most 2000 nM.
To `O=C(Nc1cc2ccccc2c(-c2ccc3[nH]ncc3c2)n1)C1(c2ccc3c(c2)OC(F)(F)O3)CC1` [Compound 2, N-(1-(1H-Indazol-5-yl)isoquinolin-3-yl)-1-(2,2-difluorobenzo[d][1,3]dioxol-5-yl)cyclopropanecarboxamide] belongs at most 2000 nM; to `CN(C)CCOC(=O)c1cccc(-c2nc(NC(=O)C3(c4ccc5c(c4)OC(F)(F)O5)CC3)cc3ccccc23)c1` [Compound 19, 2-(Dimethylamino)ethyl 3-(3-(1-(2,2-difluorobenzo[d][1,3]dioxol-5-yl)cyclopropanecarboxamido)isoquinolin-1-yl)benzoate], at most 2000 nM; to `O=C(Nc1cc2ccccc2c(-c2ccccc2)n1)C1(c2ccc3c(c2)OC(F)(F)O3)CC1` [Compound 4, 1-(2,2-difluorobenzo[d][1,3]dioxol-5-yl)-N-(1-phenylisoquinolin-3-yl)cyclopropanecarboxamide], at most 2000 nM.
Consider `O=C(O)c1cccc(-c2nc(NC(=O)C3(c4ccc5c(c4)OC(F)(F)O5)CC3)cc3ccccc23)c1` [Compound 8], for which the EC50 was at most 2000 nM.
As to `NS(=O)(=O)c1cccc(-c2nc(NC(=O)C3(c4ccc5c(c4)OC(F)(F)O5)CC3)cc3ccccc23)c1` [Compound 13, 1-(2,2-Difluorobenzo[d][1,3]dioxol-5-yl)-N-(1-(3-sulfamoylphenyl)isoquinolin-3-yl)cyclopropanecarboxamide], the EC50 is at most 2000 nM.
